Reference: US4291021A, “Novel macrolide antibiotics and preparation thereof” (Toyo Jozo Company, Ltd., priority 1978, dated 1981)

Columns and labels:
[1] = test system: Salmonella typhosa (E 901); assay: antibacterial spectrum, agar dilution method; type: cell-based; settings: 10^8 x1
[2] = solubility; type: physicochemical
[3] = test system: Staphylococcus aureus (ATCC 6538 P); assay: antibacterial spectrum, agar dilution method; type: cell-based; settings: S. aureus ATCC 6538 P, 10^8 x1
[4] = test system: Streptococcus pyogenes (1022); assay: antibacterial spectrum, agar dilution method; type: cell-based; settings: S. pyogenes 1022, 10^8 x1
[5] = test system: Staphylococcus aureus (MS 353 AO); assay: antibacterial spectrum, agar dilution method; type: cell-based; settings: S. aureus MS 353 AO, 10^8 x1
[6] = test system: Streptococcus pyogenes (N.Y.5); assay: antibacterial spectrum, agar dilution method; type: cell-based; settings: S. pyogenes N.Y.5, 10^8 x1
[7] = test system: Mycoplasma gallisepticum; assay: anti-mycoplasmal spectrum, agar dilution method; type: cell-based; settings: 10^8 x1
[8] = test system: Staphylococcus aureus (MS 353); assay: antibacterial spectrum, agar dilution method; type: cell-based; settings: S. aureus MS 353, 10^8 x1
[9] = test system: Salmonella enteritidis gertner; assay: antibacterial spectrum, agar dilution method; type: cell-based; settings: 10^8 x1
[10] = test system: Shigella sonney (E 33); assay: antibacterial spectrum, agar dilution method; type: cell-based; settings: 10^8 x1
[11] = test system: Escherichia coli (NIHJ-JC2); assay: antibacterial spectrum, agar dilution method; type: cell-based; settings: E. coli NIHJ-JC2, 10^8 x1
[12] = test system: Staphylococcus epidermidis (s.p.-al-l); assay: antibacterial spectrum, agar dilution method; type: cell-based; settings: 10^8 x1
[13] = acidic or basic nature; type: physicochemical
[14] = test system: Staphylococcus aureus (0127); assay: antibacterial spectrum, agar dilution method; type: cell-based; settings: S. aureus 0127, 10^8 x1
[15] = test system: Proteus vulgaris (OX19); assay: antibacterial spectrum, agar dilution method; type: cell-based; settings: 10^8 x1
[16] = test system: Serratia marcescence; assay: antibacterial spectrum, agar dilution method; type: cell-based; settings: 10^8 x1
[17] = test system: Streptococcus faecalis (1501); assay: antibacterial spectrum, agar dilution method; type: cell-based; settings: S. faecalis 1501, 10^8 x1
[18] = test system: Staphylococcus aureus (0116); assay: antibacterial spectrum, agar dilution method; type: cell-based; settings: S. aureus 0116, 10^8 x1
[19] = test system: Sarcina lutea (ATCC 9341); assay: antibacterial spectrum, agar dilution method; type: cell-based; settings: 10^8 x1
[20] = test system: Corynebacterium diphtheriae (P.W.8); assay: antibacterial spectrum, agar dilution method; type: cell-based; settings: 10^8 x1
[21] = test system: Klebsiella pneumoniae (ATCC 10031); assay: antibacterial spectrum, agar dilution method; type: cell-based; settings: 10^8 x1
[22] = test system: Pseudomonas aeruginosa (IAM 1095); assay: antibacterial spectrum, agar dilution method; type: cell-based; settings: 10^8 x1
[23] = test system: Mycoplasma synoviae; assay: anti-mycoplasmal spectrum, agar dilution method; type: cell-based; settings: 10^8 x1
[24] = test system: Micrococcus flavus (ATCC 10240); assay: antibacterial spectrum, agar dilution method; type: cell-based; settings: 10^8 x1
[25] = test system: Streptococcus agalactiae (1020); assay: antibacterial spectrum, agar dilution method; type: cell-based; settings: S. agalactiae 1020, 10^8 x1
[26] = test system: Escherichia coli (B); assay: antibacterial spectrum, agar dilution method; type: cell-based; settings: E. coli B, 10^8 x1
[27] = test system: Staphylococcus aureus (MS 353 C36); assay: antibacterial spectrum, agar dilution method; type: cell-based; settings: S. aureus MS 353 C36, 10^8 x1
[28] = test system: Shigella flexneri type 3a; assay: antibacterial spectrum, agar dilution method; type: cell-based; settings: 10^8 x1
[29] = test system: Bacillus subtilis (ATCC 6633); assay: antibacterial spectrum, agar dilution method; type: cell-based; settings: 10^8 x1
[30] = test system: Staphylococcus aureus (0119); assay: antibacterial spectrum, agar dilution method; type: cell-based; settings: S. aureus 0119, 10^8 x1

## CC[C@H]1OC(=O)/C=C/[C@H](C)[C@@H](O[C@@H]2O[C@H](C)C[C@H](N(C)C)[C@H]2O)[C@@H](C)C[C@@H](C)C(=O)/C=C/[C@@H]2O[C@H]2[C@]1(O)CO[C@@H]1O[C@H](C)[C@@H](O)[C@@H](OC)[C@H]1OC [A 11725 II]
[1]
  Minimum growth inhibitory concentration: > 100 µg/mL
[2]; similar to A 11725 I
  Solubility compared with A 11725 I: Similar
[3]
  Minimum growth inhibitory concentration: 0.2 µg/mL
[4]
  Minimum growth inhibitory concentration: > 100 µg/mL
[5]
  Minimum growth inhibitory concentration: > 100 µg/mL
[6]
  Minimum growth inhibitory concentration: ≤ 0.05 µg/mL
[7]
  Minimum growth inhibitory concentration: 0.03 µg/mL
[8]
  Minimum growth inhibitory concentration: 0.2 µg/mL
[9]
  Minimum growth inhibitory concentration: > 100 µg/mL
[10]
  Minimum growth inhibitory concentration: > 100 µg/mL
[11]
  Minimum growth inhibitory concentration: > 100 µg/mL
[12]
  Minimum growth inhibitory concentration: 0.1 µg/mL
[13]
  Acidic or basic nature: Basic
[14]
  Minimum growth inhibitory concentration: > 100 µg/mL
[15]
  Minimum growth inhibitory concentration: 50 µg/mL
[16]
  Minimum growth inhibitory concentration: > 100 µg/mL
[17]
  Minimum growth inhibitory concentration: > 100 µg/mL
[18]
  Minimum growth inhibitory concentration: > 100 µg/mL
[19]
  Minimum growth inhibitory concentration: ≤ 0.05 µg/mL
[20]
  Minimum growth inhibitory concentration: 0.4 µg/mL
[21]
  Minimum growth inhibitory concentration: 25 µg/mL
[22]
  Minimum growth inhibitory concentration: > 100 µg/mL
[23]
  Minimum growth inhibitory concentration: 0.8 µg/mL
[24]
  Minimum growth inhibitory concentration: 0.2 µg/mL
[25]
  Minimum growth inhibitory concentration: 6.3 µg/mL
[26]
  Minimum growth inhibitory concentration: 25 µg/mL
[27]
  Minimum growth inhibitory concentration: 0.1 µg/mL
[28]
  Minimum growth inhibitory concentration: 50 µg/mL
[29]
  Minimum growth inhibitory concentration: 0.4 µg/mL
[30]
  Minimum growth inhibitory concentration: > 100 µg/mL

## CC[C@H]1OC(=O)/C=C/[C@H](C)[C@@H](O[C@@H]2O[C@H](C)C[C@H](N(C)C)[C@H]2O)[C@@H](C)C[C@@H](C)C(=O)/C=C/C2OC2[C@@H]1CO[C@@H]1O[C@H](C)[C@@H](O)[C@@H](OC)[C@H]1OC (stereo partly drawn) [A 11725 I]
[1]
  Minimum growth inhibitory concentration: > 100 µg/mL
[2]; acidic water, methanol, acetone, ethyl acetate, benzene
  Solubility in acidic water and organic solvents: Soluble
[3]
  Minimum growth inhibitory concentration: 0.2 µg/mL
[4]
  Minimum growth inhibitory concentration: > 100 µg/mL
[5]
  Minimum growth inhibitory concentration: > 100 µg/mL
[6]
  Minimum growth inhibitory concentration: ≤ 0.05 µg/mL
[7]
  Minimum growth inhibitory concentration: 0.006 µg/mL
[8]
  Minimum growth inhibitory concentration: 0.2 µg/mL
[9]
  Minimum growth inhibitory concentration: > 100 µg/mL
[10]
  Minimum growth inhibitory concentration: > 100 µg/mL
[11]
  Minimum growth inhibitory concentration: > 100 µg/mL
[12]
  Minimum growth inhibitory concentration: 0.1 µg/mL
[13]
  Acidic or basic nature: Basic
[14]
  Minimum growth inhibitory concentration: > 100 µg/mL
[15]
  Minimum growth inhibitory concentration: 100 µg/mL
[16]
  Minimum growth inhibitory concentration: > 100 µg/mL
[17]
  Minimum growth inhibitory concentration: > 100 µg/mL
[18]
  Minimum growth inhibitory concentration: > 100 µg/mL
[19]
  Minimum growth inhibitory concentration: ≤ 0.05 µg/mL
[20]
  Minimum growth inhibitory concentration: 0.4 µg/mL
[21]
  Minimum growth inhibitory concentration: 25 µg/mL
[22]
  Minimum growth inhibitory concentration: > 100 µg/mL
[23]
  Minimum growth inhibitory concentration: 0.03 µg/mL
[24]
  Minimum growth inhibitory concentration: ≤ 0.05 µg/mL
[25]
  Minimum growth inhibitory concentration: 12.5 µg/mL
[26]
  Minimum growth inhibitory concentration: 100 µg/mL
[27]
  Minimum growth inhibitory concentration: ≤ 0.05 µg/mL
[28]
  Minimum growth inhibitory concentration: 100 µg/mL
[29]
  Minimum growth inhibitory concentration: 0.4 µg/mL
[30]
  Minimum growth inhibitory concentration: > 100 µg/mL
